The text below walks through data of EP0288048A2, “Benzo- and thieno-3,4-dihydropyridine derivates, processes for their preparation, and medicaments containing them” (BOEHRINGER INGELHEIM KG, priority 1987, dated 1988).

In one assay the test system is isolierten Rattenherzen. Briefly: Cardioprotective effect on isolated rat hearts under ischaemia followed by reperfusion (duration of arrhythmia phase). Also noted: species or system Ratten. Conditions: konz. 3,3 µg/ml; isolated rat heart, one hour ischaemia (flow 0.15 ml/min), then reperfusion. From the text:
Wird ein längere Zeit unter ischämischen Bedingungen gehaltenes, isoliertes Herz wieder normal perfundiert, so tritt keine sofortige Normalisierung der Herzfunktion ein. Es findet sich vielmehr eine vorübergehende Periode, die durch Kontraktur und Arrhytmien gekennzeichnet ist. Diese Arrhythmiephase ist durch Veränderungen von Funktion und Struktur der Myocardzelle mit intrazellulärer Calciumüberladung bedingt (Hess u. Manson, J. Mol. Cell. Cardiol. 16, 969, 1984). Cardioprotektiv wirksame Verbindungen wie Verapamil und Diltiazem verringern die Calciumüberladung und verbessern das Kontraktionsverhalten bei Reperfusion (Watts et al. Am. J. Physiol. 238, H 909, 1980; Meno et al. Am. J. Physiol. 247, H 380, 1984). Die cardioprotektive Wirkung wurde an isolierten Rattenherzen unter Ischämie und anschließender Reperfusion untersucht. Unter Kontrollbedingungen findet sich nach einstündiger Ischämie (Fluß 0.15 ml,min) eine Periode unregelmäßiger Herztätigkeit von 10-15 Minuten. Infusion von cardioprotektiven Verbindungen bewirkt eine signifikante Verkürzung dieser Periode.
`COc1cc2c(cc1OC)C1(CCCC1)CNC2=CC1=NCC2(CCCC2)c2cc(OC)c(OC)cc21` [Verbindung A]: the “Verkürzung der Arrhythmie-phase von 11-13 min auf” value is on record as 4,0 min.

For the compound `COc1cc2c(cc1OC)C(C(CCc1ccccc1)C(=O)NCCc1ccncc1)=NCC2` (stereo not drawn) [L], the “Verkürzung der Arrhythmie-phase von 11-13 min auf” value is 5,0 min.

Staying with this assay, now noted: konz. 6,6 µg/ml; isolated rat heart, one hour ischaemia (flow 0.15 ml/min), then reperfusion.
With `CCCCC(C(=O)NC(C)CCCC(C)C)C1=NCCc2cc(OC)c(OC)cc21` (stereo not drawn) [K], the “Verkürzung der Arrhythmie-phase von 11-13 min auf” value is 3,1 min.

The assay is the same for the next values; noted with them: konz. 13,3 µg/ml; isolated rat heart, one hour ischaemia (flow 0.15 ml/min), then reperfusion.
`COc1cc2c(cc1OC)C(CC(=O)N1CCOCC1)=NCC2` [Verbindung I]: the “Verkürzung der Arrhythmie-phase von 11-13 min auf” value is reported as 3,5 min.

The test system of the next assay is myocardiale Radiocalciumaufnahme. Briefly: Cardioprotective effect in conscious rats: inhibition of isoprenaline-induced myocardial radiocalcium uptake (method of Arndts). Type of assay: in vivo, Ratten. Further details: unit not given here. The conditions noted are these: oral administration (perorale Wirkstoffabgabe), dose inhibiting by 50 % the myocardial radiocalcium uptake caused by 30 mg/kg s.c. Isoprenalin. From the text:
Insbesondere weisen diese Substanzen eine deutliche cardioprotektive Wirkung auf, die wie folgt bestimmt wurde: • Bekanntlich ist der myocardiale Ca(2+)-Gehalt ein Maß für die hypoxische bzw. durch toxische Catecholamindosen hervorgerufene Herzschädigung (Higgins et al., Mol. Cell. Cardiol. 10, 427-438, 1984; Nakanishi et al., Am. J. Physiol. 242, 437-449, 1982; Fleckenstein, A. Vorträge der Erlanger Physiol. Tagung 1970, Edit. Keidel, Springer Verlag Berlin, Heidelberg, New York, 1971). Umgekehrt ist die Inhibition der hypoxischen oder Isoprenalin-bedingten myocardialen Calciumaufnahme ein Maß für die cardioprotektive Effektivität von Calciumantagonisten (Fleckenstein, s.o.), von Calmodulininhibitoren (Higgins) und anderen Pharmaka, z.B. Betaadrenolytika (Arndts, Arzneimittelforschung 25, 1279-1284, 1975). Die cardioprotektive Wirkung wurde an wachen Ratten nach subcutaner oder peroraler Wirkstoffabgabe anhand der von Arndts (s.o.) beschriebenen Methode festgestellt und die Wirkungsstärke der Testsubstanzen als Hso-Wert angegeben. Dieser Wert entspricht der Dosis, die die durch eine Gabe von 30 mg/kg s.c. Isoprenalin bedingte myocardiale Radiocalciumaufnahme zu 50 % hemmt.
On to `COc1cc2c(cc1OC)C1(CCCC1)CNC2=CC1=NCC2(CCCC2)c2cc(OC)c(OC)cc21` [Verbindung A], for which the H50-Wert came out at 1.25.

Take `CCCCC(C(=O)NCC(C)C)C1=NCCc2cc(OC)c(OC)cc21` (stereo not drawn) [C, α-Isobutylaminocarbonyl-1-pentyl-6,7-dimethoxy-3,4-dihydro-isochinolin]: the H50-Wert amounted to 1.34.

As to `COc1cc2c(cc1OC)C(CC(=O)NN(C)C)=NCC2` [B], the H50-Wert is given as 2.26.

Regarding `CCCCC(C(=O)NCCc1ccccn1)C1=NCCc2cc(OC)c(OC)cc21` (stereo not drawn) [E], the H50-Wert was 2.29.

In the case of `CCCCC(C(=O)NC)C1=NCCc2cc(OC)c(OC)cc21` (stereo not drawn) [F], the H50-Wert stood at 1.41.

In the case of `CCCCC(C(=O)NCC(C)O)C1=NCCc2cc(OC)c(OC)cc21` (stereo not drawn) [Verbindung H], the H50-Wert was 2.15.

As for `CCCCC(C(=O)NCCOC)C1=NCCc2cc(OC)c(OC)cc21` (stereo not drawn) [G], the H50-Wert came to 2.23.

Consider `CCCCC(C(=O)NC(C)C)C1=NCCc2cc(OC)c(OC)cc21` (stereo not drawn) [D], for which the H50-Wert is recorded as 2.25.
